The structures appear in SMILES notation.

One test relates to THP-1 cells. The experiment in a line: TNF stimulated CXCL8 release by THP-1 cells (ELISA). Type of test: cell-based. The following applies: Homo sapiens, TNF 2 ng/ml, overnight, single agents (Figure 5A), read-out: IC50 for TNF stimulated CXCL8 release (titration experiment with DEX). The procedure: THP-1 cells (10^5 cells/200 µL/well) and RA FLS (10^4/200 µL/well) were plated in 96 well plates and pre-treated with compound or vehicle for 1 h and then stimulated with either LPS (10 ng/ml), IL-1ß (2 ng/ml) or TNF (2 ng/ml for THP-1 and 1 ng/ml for RA FLS). After 18 h of incubation, supernatants were collected and the levels of cytokines and chemokines in the culture supernatants were measured by ELISA according to the manufacturer’s protocols (R&D systems, Minneapolis, MN).
Drug synergy analysis was performed using Isobologram plots which were calculated according to reported procedures using methods of Chou-Talalay ([Chou and Talalay, 1984]) to compute IC50 and determine synergism. IC50 is computed from the median effect equation. Synergism analysis is carried out using the Combination index (CI)-isobol method. Data analysis was performed using the CompuSyn software available on combisyn.com. Detailed methodology was used as described in a prior report ([Chou, 2006]). […] This is followed by CI-isobol method to quantitatively assess the synergism between these inhibitor drugs. […] From the median effect equation, the estimated dose (i.e., D) necessary to produce the inhibition (i.e. Fa, Fu) obtained by the combination was calculated. […]
For orientation: In an ELISA, binding on a coated surface is turned into a signal by an enzyme label.

A further test relates to NF-κB. Nature of the test: NF-κB activation assay in LPS stimulated CellSensor NF-κB-bla THP-1 reporter cells (FRET). Type of test: cell-based, human. As to conditions: THP-1 CellSensor NF-κB-bla reporter cells, LPS 10 ng/ml, 5 h and 16 h. As to the method:
The CellSensor® NF-κB-bla THP-1 cell line has a stably integrated ß-lactamase reporter gene under the control of the nuclear factor kappa B (NF-κB) response element. […] In the presence of ß-lactamase, CCF4 was enzymatically cleaved and excitation at 409 nm produced a blue fluorescence signal (at 450 nm). The CellSensor® NF-κB-bla THP-1 cells were dispersed in 96-well plates (5 × 10^4 cells/200 µL/well) and incubated for 4 h. […] After incubation, the ß-lactamase substrate mixture (prepared according to the manufacturer’s protocol) was added to each well. Plates were incubated at room temperature in the dark for 2 h. Fluorescence was measured on a Tecan Infinite M200 plate reader (Tecan, Mannedorf, Switzerland) at an excitation wavelength of 405 nm and emission wavelengths of 465 and 535 nm. Emission ratios are calculated by dividing values from emission wavelength of 465 nm by those from emission wavelength of 535 nm. The response ratio was calculated as follows [(emission ratio of a test well)/average emission ratio of wells with vehicle (0.5% DMSO)] and values were normalized to the LPS control treated wells [response ratio of the compound/response ratio of LPS].

On to `C[C@@H]1C[C@H]2[C@@H]3CCC4=CC(=O)C=C[C@]4(C)[C@@]3(F)[C@@H](O)C[C@]2(C)[C@@]1(O)C(=O)CO` [DEX, dexamethasone], for which the IC50 in the test with THP-1 cells stood at 300 nM. Moreover, the “Inhibition of LPS induced NF-κB activity” value with NF-κB was “inhibited NF-κB activity more potently at 16 h than 5 h”.
In the case of `NC(=O)Nc1sc(-c2ccc(F)cc2)cc1C(N)=O` [UTC, 5-(4-fluorophenyl)-2-ureidothiophene-3 carboxylic acid amide], the “Inhibition of LPS induced NF-κB activity” value in the test on NF-κB was “inhibited NF-κB activity at both time points”.

These data come from article PMC7773657, “Identification of Compounds With Glucocorticoid Sparing Effects on Suppression of Chemokine and Cytokine Production by Rheumatoid Arthritis Fibroblast-Like Synoviocytes” (Frontiers in Pharmacology, 2020).
